Measurements: patent US20150355456A1, “ELECTROWETTING FLUIDS” (MERCK PATENT GMBH, priority 2013, published 2015)

What was measured:
[1] = Solubility from absorbance of a filtered over-saturated dye sample; format: physicochemical; conditions: concentration extrapolated via calibration curve and Beer Lambert Law
Method: (§1) a) Dye mixtures using the novel dyes are prepared to obtain neutral black samples that can be used in EWD. b) Solubility is measured by filtering an over-saturated sample of dissolved dye, measuring the resulting absorbance value, and extrapolating the concentration using a calibration curve and Beer Lambert Law (Absorbance=∈cl, where ∈ is the extinction coefficient of the material, calculated from a calibration curve, c is concentration, and l is the path length of the measurement). c) The absorbance is measured using a Hitachi U3310 spectrophotometer with a 5 micron path length under a single pass transmission measurement condition. d) The impact of the dye on the electrical properties is measured by comparing the dielectric constant of a series of formulations with increasing dye content. There is a linear relationship between dye concentration and dielectric constant, the gradient of which is indicative of the polarisability of the dye. This gradient value is denoted as an ‘alpha value’. A low alpha value indicates a smaller change in dielectric constant as dye concentration increases, and is desirable. High alpha values indicate that the dye has a large impact on the dielectric constant of the solvent, which will likely have a negative impact on the behaviour of the fluid in an electrowetting display pixel.

[2] = Alpha value: gradient of dielectric constant against dye concentration (polarisability); format: physicochemical; conditions: gradient of dielectric constant vs dye concentration; low value desirable
Method: as §1

[3] = Extinction coefficient from calibration curve; format: physicochemical; conditions: extinction coefficient calculated from calibration curve

melting point	Solubility % [1]	Alpha value [2]	εmax [3]	SMILES
79 to 81 °C	0.22%			CCCCCCCCCCCCCC1(C)Nc2cccc3c(/N=N/c4ccc(/N=N/c5ccc(CCCC)cc5)c5ccccc45)ccc(c23)N1 (stereo not shown) [Dye 1, 6-((E)-(4-((E)-(4-Butylphenyl)diazenyl)naphthalen-1-yl)diazenyl)-2-methyl-2-tridecyl-2,3-dihydro-1H-perimidine]
	19.53%	2.9360	40107	CCCCCCCCCCCCCC1(C)N(CCCCCCCC)c2cccc3c(/N=N/c4ccc(/N=N/c5ccc(CCCC)cc5)c5ccccc45)ccc(c23)N1CCCCCCCC (stereo not shown) [Dye 2, 6-((E)-(4-((E)-(4-butylphenyl)diazenyl)naphthalen-1-yl)diazenyl)-2-methyl-1,3-dioctyl-2-tridecyl-2,3-dihydro-1H-perimidine]
	28.66%		38954	CCCCc1ccc(/N=N/c2cc(OCC(CC)CCCC)c(/N=N/c3ccc(N(CC(CC)CCCC)CC(CC)CCCC)cc3C)cc2C)cc1 (stereo not shown) [Dye 14, 4-((E)-(4-((E)-(4-butylphenyl)diazenyl)-2-(2-ethylhexyloxy)-5-methylphenyl)diazenyl)-N,N-bis(2-ethylhexyl)-3-methylaniline]
